Results reported in patent US6362369B1, “Phthalic acid diamide derivatives fluorine-containing aniline compounds as starting material, agricultural and horticultural insecticides, and a method for application of the insecticides” (Nihon Nohyaku Co., Ltd., priority 1997, dated 2002).

Columns and labels:
[1] = system: diamondback moth (Plutella xylostella); experiment: Insecticidal effect on diamondback moth (Test Example 1); assay type: in vivo; conditions: for Insecticidal effect (Test Example 1), judged from mortality / Insecticidal effect, Test Example 1: diamondback moth; for Insecticidal effect (Test Example 1), judged from mortality: judged by the criterion of Test Example 1; for Insecticidal effect on diamondback moth (Test Example 1), judged grade: mortality judged according to the criterion shown in Test Example 1
How it was run: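 Triplicate groups of 10 insects: eggs laid on Chinese cabbage seedling by adults, seedling immersed then air-dried, kept at 25° C. Day-6 hatch counts gave mortality, rated by criterion.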

[2] = system: rice leafroller (Cnaphalocrocis medinalis); experiment: Insecticidal effect on rice leafroller (Test Example 3); assay type: in vivo; conditions: 500 ppm, 25° C., humidity 70%; for Insecticidal effect (Test Example 3), judged from mortality / Insecticidal effect on rice leafroller (Test Example 3), judged grade: rice lamina dip; for Insecticidal effect (Test Example 3), judged from mortality: 4 days after inoculation; for Insecticidal effect, Test Example 3: rice lamina immersed; for Insecticidal effect, Test Example 3 / Insecticidal effect on rice leafroller (Test Example 3), judged grade: four days after inoculation; for Insecticidal effect on rice leafroller (Test Example 3), judged grade: third-instar larvae
How it was run: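 Insecticidal effect is judged by a predefined criterion from dead/alive counts four days after infesting air-dried lamina with third-instar larvae, kept on moistened filter paper at 25° C, 70% humidity.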

[3] = third-instar larvae of rice leafroller
[4] = judged by the mortality criterion of Test Example 1
[5] = mortality judged by criterion of Test Example 1
[6] = rice leafroller third-instar larvae

SMILES: Cc1cc(C(F)(F)C(F)(F)F)ccc1N(C)C(=O)c1cccc(Cl)c1C(=O)N(C)Cc1ccccc1 [compound 1553]
- Insecticidal effect (Test Example 1), judged from mortality [1]: A (100)
- Insecticidal effect (Test Example 3), judged from mortality [2, 3]: A (100)

SMILES: Cc1ccccc1NC(=O)c1ccccc1C(=O)NC(C)C [compound 24]
- Insecticidal effect, Test Example 1 [1, 4]: A (100)
- Insecticidal effect, Test Example 3 [2, 3]: D (79-50)

SMILES: COc1ccc(NC(=O)c2cccc(I)c2C(=O)NC(C)C)c(C)c1 [compound 376]
- Insecticidal effect, Test Example 1 [1, 4]: A (100)
- Insecticidal effect, Test Example 3 [2, 3]: A (100)

SMILES: Cc1cc(C(F)(F)C(F)(F)F)ccc1NC(=O)c1cccc(Cl)c1C(=O)NCc1ccc(Cl)c(Cl)c1 [compound 1351]
- Insecticidal effect, Test Example 1 [1, 5]: A (100)
- Insecticidal effect, Test Example 3 [2, 6]: A (100)

SMILES: CC(C)NC(=O)c1c(C(=O)Nc2ccccc2Br)cccc1[N+](=O)[O-] [compound 589]
- Insecticidal effect on diamondback moth (Test Example 1), judged grade [1]: A (100)
- Insecticidal effect on rice leafroller (Test Example 3), judged grade [2]: A (100)

SMILES: Cc1c(Cl)cccc1NC(=O)c1c(F)cccc1C(=O)NC(C)C [compound 544]
- Insecticidal effect on diamondback moth (Test Example 1), judged grade [1]: A (100)
- Insecticidal effect on rice leafroller (Test Example 3), judged grade [2]: A (100)

SMILES: Cc1cc(OC(F)(F)F)ccc1NC(=O)c1c(Br)cccc1C(=O)NC(C)C [compound 326]
- Insecticidal effect, Test Example 1 [1, 4]: A (100)
- Insecticidal effect, Test Example 3 [2, 3]: A (100)

SMILES: CCC(CO)NC(=O)c1cccc(Cl)c1C(=O)Nc1ccc(C(F)(F)C(F)(F)F)cc1C (stereo not drawn) [compound 1441]
- Insecticidal effect, Test Example 1 [1, 5]: A (100)
- Insecticidal effect, Test Example 3 [2, 6]: A (100)

SMILES: COc1cc(NC(=O)c2cccc(I)c2C(=O)NC(C)C)ccc1OC(F)F [compound 384]
- Insecticidal effect, Test Example 1 [1, 4]: A (100)
- Insecticidal effect, Test Example 3 [2, 3]: C (89-80)

SMILES: Cc1cc(Oc2ncc(C(F)(F)F)cc2Cl)ccc1NC(=O)c1c(Cl)cccc1C(=O)NC(C)C [compound 250]
- Insecticidal effect, Test Example 1 [1, 4]: A (100)
- Insecticidal effect, Test Example 3 [2, 3]: D (79-50)

SMILES: CCC(C)NC(=O)c1c(Cl)cccc1C(=O)Nc1ccc(OC(F)F)cc1C (stereo not drawn) [compound 836]
- Insecticidal effect on diamondback moth (Test Example 1), judged grade [1]: A (100)
- Insecticidal effect on rice leafroller (Test Example 3), judged grade [2]: A (100)

SMILES: Cc1cc(C(F)(F)C(F)(F)F)ccc1NC(=O)c1cccc(Cl)c1C(=O)N(C)Cc1cccc(Cl)c1 [compound 1578]
- Insecticidal effect (Test Example 1), judged from mortality [1]: A (100)
- Insecticidal effect (Test Example 3), judged from mortality [2, 3]: A (100)

SMILES: Cc1cc(C(F)(F)F)ccc1NC(=O)c1cccc([N+](=O)[O-])c1C(=O)NC(C)C [compound 682]
- Insecticidal effect on diamondback moth (Test Example 1), judged grade [1]: A (100)
- Insecticidal effect on rice leafroller (Test Example 3), judged grade [2]: A (100)

SMILES: CC(C)NC(=O)c1cccc(F)c1C(=O)Nc1ccc(OC(F)(F)F)cc1Br [compound 563]
- Insecticidal effect on diamondback moth (Test Example 1), judged grade [1]: A (100)
- Insecticidal effect on rice leafroller (Test Example 3), judged grade [2]: A (100)

SMILES: CC(C)NC(=O)c1c(I)cccc1C(=O)Nc1ccc(C(C)C)c2scnc12 [compound 1763]
- Insecticidal effect (Test Example 1), judged from mortality [1]: A (100)
- Insecticidal effect (Test Example 3), judged from mortality [2, 3]: A (100)

SMILES: CC(C)NC(=O)c1cccc(F)c1C(=O)Nc1cccc(Cl)c1Cl [compound 543]
- Insecticidal effect on diamondback moth (Test Example 1), judged grade [1]: A (100)
- Insecticidal effect on rice leafroller (Test Example 3), judged grade [2]: A (100)

SMILES: CC(C)NC(=O)c1c(C(=O)Nc2ccccc2)cccc1[N+](=O)[O-] [compound 585]
- Insecticidal effect on diamondback moth (Test Example 1), judged grade [1]: A (100)
- Insecticidal effect on rice leafroller (Test Example 3), judged grade [2]: A (100)

SMILES: COc1ccc(NC(=O)c2cccc(Cl)c2C(=O)NC(C)C)c(C)c1 [compound 123]
- Insecticidal effect, Test Example 1 [1, 4]: A (100)
- Insecticidal effect, Test Example 3 [2, 3]: A (100)

SMILES: CC(C)NC(=O)c1c(F)cccc1C(=O)Nc1ccc(C(F)(F)C(F)(F)F)cc1F [compound 1514]
- Insecticidal effect (Test Example 1), judged from mortality [1]: A (100)
- Insecticidal effect (Test Example 3), judged from mortality [2, 3]: A (100)

SMILES: Cc1cc(C(F)(F)C(F)(F)F)ccc1NC(=O)c1c(Cl)cccc1C(=O)NC(C)(C)CO [compound 1415]
- Insecticidal effect, Test Example 1 [1, 5]: A (100)
- Insecticidal effect, Test Example 3 [2, 6]: A (100)

SMILES: CC(C)NC(=O)c1ccc(Cl)cc1C(=O)Nc1ccc(Cl)cc1Cl [compound 187]
- Insecticidal effect, Test Example 1 [1, 4]: A (100)
- Insecticidal effect, Test Example 3 [2, 3]: D (79-50)

SMILES: CCC(C)NC(=O)c1cccc(I)c1C(=O)Nc1ccc(C(F)(F)C(F)(F)F)cc1C (stereo not drawn) [compound 1008]
- Insecticidal effect, Test Example 1 [1, 5]: A (100)
- Insecticidal effect, Test Example 3 [2, 6]: A (100)

SMILES: Cc1cc(I)ccc1NC(=O)c1c(Cl)cccc1C(=O)NC(C)C [compound 217]
- Insecticidal effect, Test Example 1 [1, 4]: A (100)
- Insecticidal effect, Test Example 3 [2, 3]: A (100)

SMILES: Cc1cc(OC(F)(F)C(F)(F)c2ccccc2)ccc1NC(=O)c1cccc(I)c1C(=O)NC(C)C [compound 1088]
- Insecticidal effect, Test Example 1 [1, 5]: A (100)
- Insecticidal effect, Test Example 3 [2, 6]: A (100)

SMILES: CC(C)NC(=O)c1ccccc1C(=O)Nc1ccc2c(c1)nc(C(F)(F)F)n2C [compound 86]
- Insecticidal effect, Test Example 1 [1, 4]: B (99-90)
- Insecticidal effect, Test Example 3 [2, 3]: B (99-90)

SMILES: Cc1cc(Sc2ccc(Cl)cc2)ccc1NC(=O)c1c(F)cccc1C(=O)NC(C)C [compound 575]
- Insecticidal effect on diamondback moth (Test Example 1), judged grade [1]: A (100)
- Insecticidal effect on rice leafroller (Test Example 3), judged grade [2]: A (100)

SMILES: Cc1cc(OC(F)(F)F)ccc1NC(=O)c1c(I)cccc1C(=O)NC(C)(C)C [compound 958]
- Insecticidal effect, Test Example 1 [1, 5]: A (100)
- Insecticidal effect, Test Example 3 [2, 6]: A (100)

SMILES: Cc1cc(C(F)(F)C(F)(F)F)ccc1NC(=O)c1cccc(I)c1C(=O)N(C)CC(C)C [compound 1043]
- Insecticidal effect, Test Example 1 [1, 5]: A (100)
- Insecticidal effect, Test Example 3 [2, 6]: A (100)

SMILES: Cc1cc(OC(F)(F)F)ccc1NC(=O)c1cccc(I)c1C(=O)NC(C)c1ccccn1 (stereo not drawn) [compound 1775]
- Insecticidal effect (Test Example 1), judged from mortality [1]: A (100)
- Insecticidal effect (Test Example 3), judged from mortality [2, 3]: A (100)

SMILES: CSc1cccc(C(=O)Nc2ccc(Br)cc2C)c1C(=O)NC(C)C [compound 782]
- Insecticidal effect on diamondback moth (Test Example 1), judged grade [1]: A (100)
- Insecticidal effect on rice leafroller (Test Example 3), judged grade [2]: A (100)

SMILES: Cc1cc(OC(F)F)ccc1NC(=O)c1cccc([S+]([O-])CC(F)(F)F)c1C(=O)NC(C)C (stereo not drawn) [compound 799]
- Insecticidal effect on diamondback moth (Test Example 1), judged grade [1]: A (100)
- Insecticidal effect on rice leafroller (Test Example 3), judged grade [2]: A (100)

SMILES: COCCNC(=O)c1cccc(I)c1C(=O)Nc1ccc(C(F)(F)C(F)(F)F)cc1C [compound 982]
- Insecticidal effect, Test Example 1 [1, 5]: A (100)
- Insecticidal effect, Test Example 3 [2, 6]: C (89-80)

SMILES: CC(C)NC(=O)c1c(I)cccc1C(=O)Nc1ccc(Br)cc1C(F)(F)C(F)(F)F [compound 1409]
- Insecticidal effect, Test Example 1 [1, 5]: A (100)
- Insecticidal effect, Test Example 3 [2, 6]: A (100)

SMILES: Cc1cc(C(F)(C(F)(F)F)C(F)(F)F)ccc1NC(=O)c1cccc(I)c1C(=O)NCCc1cccnc1 [compound 1770]
- Insecticidal effect (Test Example 1), judged from mortality [1]: A (100)
- Insecticidal effect (Test Example 3), judged from mortality [2, 3]: A (100)

SMILES: CCCNC(=O)c1c(C(=O)Nc2cc(Cl)ccc2C)cccc1[N+](=O)[O-] [compound 18]
- Insecticidal effect, Test Example 1 [1, 4]: D (79-50)
- Insecticidal effect, Test Example 3 [2, 3]: A (100)

SMILES: CC(C)NC(=O)c1ccccc1C(=O)Nc1ccc(S(=O)(=O)C(F)(F)F)cc1 [compound 1077]
- Insecticidal effect, Test Example 1 [1, 5]: A (100)
- Insecticidal effect, Test Example 3 [2, 6]: A (100)

SMILES: Cc1cc(OC(F)F)ccc1NC(=O)c1cc(I)ccc1C(=O)NC(C)C [compound 1205]
- Insecticidal effect, Test Example 1 [1, 5]: A (100)
- Insecticidal effect, Test Example 3 [2, 6]: A (100)

SMILES: CCCNC(=O)c1c(Cl)cccc1C(=O)Nc1ccc(OC(F)F)cc1C [compound 15]
- Insecticidal effect, Test Example 1 [1, 4]: A (100)
- Insecticidal effect, Test Example 3 [2, 3]: A (100)

SMILES: CC(C)NC(=O)c1ccc(Cl)cc1C(=O)Nc1ccc(F)c(F)c1 [compound 188]
- Insecticidal effect, Test Example 1 [1, 4]: D (79-50)
- Insecticidal effect, Test Example 3 [2, 3]: D (79-50)

SMILES: COc1ccc(NC(=O)c2c(I)cccc2C(=O)NC(C)C)c(C)c1 [compound 441]
- Insecticidal effect, Test Example 1 [1, 4]: A (100)
- Insecticidal effect, Test Example 3 [2, 3]: B (99-90)

SMILES: CC(C)NC(=O)c1cccc(Cl)c1C(=O)Nc1ccc(F)cc1F [compound 210]
- Insecticidal effect, Test Example 1 [1, 4]: A (100)
- Insecticidal effect, Test Example 3 [2, 3]: D (79-50)

SMILES: CC(C)NC(=O)c1c(I)cccc1C(=O)Nc1ccc(C(F)(C(F)(F)F)C(F)(F)F)c2c1CCCC2 [compound 1726]
- Insecticidal effect (Test Example 1), judged from mortality [1]: A (100)
- Insecticidal effect (Test Example 3), judged from mortality [2, 3]: A (100)

SMILES: Cc1cc(C(F)(F)C(F)(F)F)ccc1NC(=O)c1c(Cl)cccc1C(=O)NCc1ccc(Cl)c(Cl)c1 [compound 1352]
- Insecticidal effect, Test Example 1 [1, 5]: A (100)
- Insecticidal effect, Test Example 3 [2, 6]: A (100)

SMILES: Cc1cc(Oc2ccc(C(F)(F)F)cn2)ccc1NC(=O)c1cccc([N+](=O)[O-])c1C(=O)NC(C)C [compound 728]
- Insecticidal effect on diamondback moth (Test Example 1), judged grade [1]: A (100)
- Insecticidal effect on rice leafroller (Test Example 3), judged grade [2]: A (100)

SMILES: CC(C)NC(=O)c1c(I)cccc1C(=O)Nc1cccc2c1OC(F)(F)O2 [compound 1742]
- Insecticidal effect (Test Example 1), judged from mortality [1]: A (100)
- Insecticidal effect (Test Example 3), judged from mortality [2, 3]: A (100)

SMILES: Cc1cc(OC(F)(F)C(Cl)(Cl)Cl)ccc1NC(=O)c1c(F)cccc1C(=O)NC(C)C [compound 552]
- Insecticidal effect on diamondback moth (Test Example 1), judged grade [1]: A (100)
- Insecticidal effect on rice leafroller (Test Example 3), judged grade [2]: B (99-90)

SMILES: CC(C)NC(=O)c1cccc(Br)c1C(=O)Nc1ccc(OC(F)(F)F)cc1Br [compound 324]
- Insecticidal effect, Test Example 1 [1, 4]: A (100)
- Insecticidal effect, Test Example 3 [2, 3]: A (100)

SMILES: Cc1ccc(Cl)cc1NC(=O)c1c(F)cccc1C(=O)NC(C)C [compound 546]
- Insecticidal effect on diamondback moth (Test Example 1), judged grade [1]: A (100)
- Insecticidal effect on rice leafroller (Test Example 3), judged grade [2]: A (100)
